# Reference: patent publication US8173620B2, “BHQ-caged nucleotide probes photolysable by two-photon excitation” (University of Georgia Research Foundation, Inc., priority 2008, dated 2012)
# Read-outs that look alike come from different tables or passages of the source. Marks after values point to notes of the source that are not given here.
# How the values were obtained:
# [1] = Two-photon uncaging action cross-section (740 nm, Tsien's method, fluorescein reference); format: physicochemical; details: for λa (calculated 2-photon absorbance cross-section): calculated from du = da × Qu; for δu (two-photon uncaging action cross-section): KMOPS, pH 7.2, measured at 740 nm
# Protocol: BHQ-ATP (159) (100 μM in KMOPS, pH=7.2) was photolyzed with a Chameleon Ultra II laser at 740 nm in 25-μL aliquots. The irradiation time intervals of the pulsed laser were 0, 5, 10, 20, and 40 min. Three samples of each time interval were collected and analyzed by HPLC using the same method as in the one-photon photolysis. Using Tsien's method of determining two-photon uncaging action cross-section with a fluorescence reference solution, the two-photon uncaging action cross-section of BHQ-ATP (159) was measured to be 0.17 GM. The ATP yield was about 40%.
# Measurements were carried out in microcuvettes (10×1×1 mm illuminated dimensions) with an effective filling volume of 20 μL (26.10F-Q-10, Starna, Atascadero, Calif.). The IR laser used was from a fs-pulsed and mode-locked Ti:sapphire laser (Mira 900 pumped by a Verdi, Coherent, Santa Clara, Calif. or a Chameleon Ultra II) focused on the center of the cuvette chamber with a 25-mm focal length lens optimized for IR lasers (06LXP003/076, Melles-Griot, Irvine, Calif.). The pulse width of the laser was 144 fs for Mira 900. The laser beam was attenuated by passing the beam through an electro-optical modulator or a ½-waveplate and polarizing beamsplitter cube so that the average power exiting the apparatus was 300-350 mW.
# Successive aliquots (25 μL) of each caged compound in KMOPS were placed into the cuvette and irradiated for 0, 5, 10, 20, and 40 min. Each aliquot was analyzed by HPLC to determine the concentration of the remaining caged compound as described for determining the uncaging quantum efficiency for one photon photolysis. The progress curves were plotted, and fitted to a single exponential decay curve. The formation of ATP was monitored, plotted, and fitted to a single exponential rise to max curve. For compounds 1c, 2a, 2b, and 3 (τdark<50 h), a correction was made for background dark hydrolysis that occurred while the irradiated samples were waiting for HPLC analysis. The fraction of the decay from hydrolysis in the dark was calculated using the measured dark hydrolysis rate and the waiting time from the end of the experiment until the HPLC injection. This value was subtracted from the total decay (hydrolysis+photolysis) measured by HPLC.
# The two-photon uncaging cross-section (δu) was determined using Tsien's method, (as described by Furuta et al., (1999) Proc. Natl. Acad. Sci. U.S.A. 96: 1193-1200 (incorporated herein by reference in its entirety), referencing to fluorescein, a compound with a known fluorescence quantum yield (Qf=0.9) and absorbance cross-section (δa=30 GM at 740 nm), using the following equation: […]
# Np is the number of molecules photolyzed per unit time (molecules/s, determined by HPLC analysis of the reaction); φ is the collection efficiency of the detector (SED033 on an IL-1700, International Light, Newburyport, Mass.) used to measure the fluorescence of fluorescein emitted at a right angle to the beam and passed though a 535/45 nm bandpass filter; CF is the concentration of the fluorescein standard (mol/L); <F(t)> is the time averaged fluorescent photon flux (photons/s) of the fluorescein standard collected by the detector; and CS is the initial concentration of the caged compound (mol/L). The light-induced uncaging of —OAc from a variety of caging moieties is illustrated in FIG. 23.
# [2] = KMOPS, pH 7.2; value taken from Fedoryak & Dore, Org. Lett. 2002; cited from earlier work
# [3] = KMOPS, pH 7.2; 740 nm; value taken from Fedoryak & Dore, Org. Lett. 2002; cited from earlier work
# [4] = Quantum efficiency for one-photon photolysis (365 nm, HPLC); format: physicochemical; details: KMOPS, pH 7.2; for Sensitivity Qu × e: one-photon excitation, 365 nm, in M^-1·cm^-1; for Qu (one-photon uncaging quantum efficiency): measured at 365 nm
# Protocol: The quantum efficiency of BHQ-ATP (159) decay and ATP recovery were determined by photolyzing a KMOPS solution of BHQ-ATP (159) (100 μM) with light from a 365 nm lamp through a set of filters that narrowed the band of light to a tight 30 nm range around 365 nm. Aliquots (20 μL) were taken out from the photolysis cuvette after a time interval of 0, 10, 20, 40, 60, or 90 secs, and HPLC analyses of these samples with a reverse phase C18 column and 85% 25 mM KH2PO4 buffer (pH=6.2)/15% methanol solvent system were carried out. The BHQ-ATP (159) peak (retention time=4.2 min.) and ATP peak (retention time=2.8 min.) were recorded and analyzed.
# KMOPS-buffered solutions (3 mL) of the substrates (100 μM) in quartz cuvettes (21-Q-10, Starna, Atascadero, Calif.) were irradiated with 365 nm UV light from a mercury lamp (Spectroline SB-100P; Spectronics, Westbury, N.Y.) with a light filter. The spectral output of the lamp after the glass filters (CSO-52 and CS7-60, Ace Glass, Vineland, N.J.) has a band between 350 nm and 380 nm. The duration of each irradiation period ranged from 5 sec to 60 sec. After each period of irradiation, a 20 μL aliquot of the solution was removed for analysis by HPLC, using an external standard method to determine concentrations.
# The analytes were eluted isocratically (flow rate of 1 mL/min) with acetonitrile and water containing 0.1% TFA (Table 1). The only exception is that BHQ-caged ATP was eluted with methanol and 25 mM KH2PO4 buffer (pH=6.2). The progress curves were plotted and fit to a single exponenial decay curve. The uncaging quantum efficiency (Qu) of each chromophore was calculated using Qu=(Iσt90%)^−1, where I is the radiant power in einstein·cm^−2s^−1, σ is the decadic extinction coefficient (10^3×ε, molar extinction coefficient) in cm^−2·mol^−1, and t90% is the irradiation time in s for 90% conversion to product (as described by Adams et al. (J. Am. Chem. Soc. (1988) 110: 3212-3220) incorporated herein by reference in its entirety). The UV intensity of the lamp was measured by potassium ferrioxalate actinometry (as described by Hatchard & Parker (Proc. Roy. Soc. London, Ser. A (1956) 235: 518-536) incorporated herein by reference in its entirety) in the same setup. ATP was monitored for its formation during the process, plotted, and fitted to an exponential rise to max curve.
# [5] = KMOPS, pH 7.2; 365 nm; value taken from Fedoryak & Dore, Org. Lett. 2002; cited from earlier work
# [6] = KMOPS, pH 7.2; value taken from Fedoryak & Dore, Org. Lett. 2002; cited from earlier work; remark: listed apart in the source
# [7] = Fluorescence spectra of quinoline chromophores in KMOPS; format: physicochemical; details: pH 7.2, excitation 365 nm
# Protocol: The fluorescence spectra of BHQ-OAc, NHQ-OAc, CyHQ-OAc, CHQ-OAc, DMAQ-OAc, DMAQ-Cl-OAc, and TQ-OAc (15 μM in KMOPS, λex=365 nm) are shown in FIG. 18.
# [8] = UV absorption of quinoline chromophores in KMOPS buffer; format: physicochemical; details: pH 7.2
# Description: It has two absorptive bands beyond 300 nm, one at 320 nm and the other at 370 nm. The 370 nm absorption band arises from the phenolate form of the BHQ skeleton, and the 320 nm absorption band is from the phenol form. […] The λmax of BHQ-ATP (159) is 376 nm, and the extinction coefficient at this wavelength is 1300 M^−1cm^−1. […]
# [9] = Dark hydrolysis rate / stability in the dark; format: physicochemical; details: KMOPS, pH 7.2, dark
# Protocol: Substrates were dissolved in KMOPS and stored in the dark at room temperature. Samples for HPLC analysis were carried out periodically and injected as described for one-photon photolysis. Data were fit to single exponential decay curves from which the time constant, τ, was calculated.
# [10] = literature value; cited from earlier work
# [11] = literature; cited from earlier work
# [12] = target: T1, renal Na,K-ATPase (Homo sapiens, UniProt P05023); details: incubated with renal Na,K-ATPase, Kaplan et al. 1978; cited from earlier work
# T1 construct: host or cells: kidney (renal) enzyme, as reported by Kaplan et al. 1978
smiles,measurement,setting,value
CC(=O)OCc1ccc2ccc(O)c(Br)c2n1 [BHQ-OAc],λa (calculated 2-photon absorbance cross-section),[1],2.0 GM
same,τdark (time constant for hydrolysis in the dark),[2],71^g h
same,δu (two-photon uncaging action cross-section),[3],0.59^g GM
same,Sensitivity Qu × e,[4],754
same,Qu (one-photon uncaging quantum efficiency),[5],0.29^g
same,ε,[6],2600^g M^−1 · cm^−1
same,λmax,[6],369^g nm
same,λem,[7],478 nm
"CC(=O)OCc1ccc2ccc(O)c(Cl)c2n1 [CHQ-OAc (1c), (8-Chloro-7-hydroxyquinolin-2-yl)methyl acetate]",δu (two-photon uncaging action cross-section),[1],0.12 GM
same,λa (calculated 2-photon absorbance cross-section),[1],1.2 GM
same,ε (extinction coefficient at λmax),[8],2800 M⁻¹ cm⁻¹
same,λmax,[8],370 nm
same,Qu (one-photon uncaging quantum efficiency),[4],0.10
same,Sensitivity Qu × e,[4],280
same,λem,[7],492 nm
same,τdark (time constant for hydrolysis in the dark),[9],49 h
"CC(=O)OCc1ccc2ccc(O)c(C#N)c2n1 [CyHQ-OAc (1b), (8-Cyano-7-hydroxyquinolin-2-yl)methyl acetate]",δu (two-photon uncaging action cross-section),[1],0.32 GM
same,λa (calculated 2-photon absorbance cross-section),[1],1.0 GM
same,ε (extinction coefficient at λmax),[8],7700 M⁻¹ cm⁻¹
same,λmax,[8],364 nm
same,Qu (one-photon uncaging quantum efficiency),[4],0.31
same,Sensitivity Qu × e,[4],2387
same,λem,[7],436 nm
same,τdark (time constant for hydrolysis in the dark),[9],500 h
"CN(C)c1ccc2c(COP(=O)(O)OP(=O)(O)OP(=O)(O)OCC3OC(n4cnc5c(N)ncnc54)C(O)C3O)cc(=O)oc2c1 (stereo not drawn) [DMACM-caged ATP, [7-(dimethylamino)coumarin-4-yl]methyl ATP]",ATP release rate,[10],1.6e+09 s⁻¹
"CC(=O)OCc1cc(Cl)c2ccc(N(C)C)cc2n1 [DMAQ-Cl—OAc (2b), (4-Chloro-7-(dimethylamino)quinolin-2-yl)methyl acetate]",δu (two-photon uncaging action cross-section),[1],0.47 GM
same,λa (calculated 2-photon absorbance cross-section),[1],5.2 GM
same,ε (extinction coefficient at λmax),[8],3300 M⁻¹ cm⁻¹
same,λmax,[8],386 nm
same,Qu (one-photon uncaging quantum efficiency),[4],0.090
same,Sensitivity Qu × e,[4],234
same,λem,[7],493 nm
same,τdark (time constant for hydrolysis in the dark),[9],34 h
"CC(=O)OCc1ccc2ccc(N(C)C)cc2n1 [DMAQ-OAc (2a), (7-(Dimethylamino)quinolin-2-yl)methyl acetate]",δu (two-photon uncaging action cross-section),[1],0.13 GM
same,λa (calculated 2-photon absorbance cross-section),[1],2.8 GM
same,ε (extinction coefficient at λmax),[8],4600 M⁻¹ cm⁻¹
same,λmax,[8],368 nm
same,Qu (one-photon uncaging quantum efficiency),[4],0.046
same,Sensitivity Qu × e,[4],211
same,λem,[7],496 nm
same,τdark (time constant for hydrolysis in the dark),[9],31 h
"COc1cc(OC)cc(C(OP(=O)(O)OP(=O)(O)OP(=O)(O)OCC2OC(n3cnc4c(N)ncnc43)C(O)C2O)C(=O)c2ccccc2)c1 (stereo not drawn) [DMB-ATP, P^3-[1-(3,5-dimethoxyphenyl)-2-phenyl-2-oxo]ethyl ester of ATP]",ATP release rate,[10],> 10^5 sec^−1
COc1cc(C(C)OP(=O)(O)OP(=O)(O)OP(=O)(O)OC[C@H]2O[C@@H](n3cnc4c(N)ncnc43)[C@H](O)[C@@H]2O)c([N+](=O)[O-])cc1OC (stereo partly drawn) [DMNPE-ATP],λmax,[11],350 nm
"Nc1ncnc2c1ncn2C1OC(COP(=O)(O)OP(=O)(O)OP(=O)(O)OCc2ccccc2[N+](=O)[O-])C(O)C1O (stereo not drawn) [NB-ATP, 2-nitrobenzyl ester of ATP]","substrate or inhibitor of Na,K-ATPase before irradiation",[12],neither a substrate nor inhibitor of this enzyme
"CC(=O)OCc1ccc2ccc(O)c([N+](=O)[O-])c2n1 [NHQ-OAc (1a), 7-Hydroxy-8-nitroquinolin-2-yl methyl acetate]",δu (two-photon uncaging action cross-section),[1],0.00 GM
same,ε (extinction coefficient at λmax),[8],6500 M⁻¹ cm⁻¹
same,λmax,[8],350 nm
same,Qu (one-photon uncaging quantum efficiency),[4],0.00
same,Sensitivity Qu × e,[4],0
same,τdark (time constant for hydrolysis in the dark),[9],278 h
"CC(OP(=O)(O)OP(=O)(O)OP(=O)(O)OCC1OC(n2cnc3c(N)ncnc32)C(O)C1O)c1ccccc1[N+](=O)[O-] (stereo not drawn) [NPE-ATP, P^3-1-(2-nitrophenyl)ethyl ester of ATP]",ATP release rate,[10],118 s⁻¹
